Source: patent US10226501B2, “Method of orally administering a date fruit extract to treat breast cancer” (King Abdulaziz University, priority 2017, dated 2019)

Tested on: female Wistar rats having DMBA-induced breast cancer
Assay: Serum antioxidant enzyme activities in rats with DMBA-induced breast cancer
Assay type: in vivo, rat
Settings: oral, daily for three months, ADE 1 or 0.5 g/kg b.w., melatonin 2.5 mM
Source text: This is an in vivo experiment showing the improvement of Ajwa Date Extract (ADE) on the antioxidant system in rats having breast cancer induced by 7,12-Dimethylbenz[a]anthracene (DMBA).
The experiment of DMBA-induced breast cancer in female Wistar rats was comprised of six different treatment groups: the untreated controls (administered normal diet), DMBA-treated, DMBA-treated and orally administered 1 g/kg b.w. (body weight) of ADE, DMBA-treated and orally administered 0.5 g/kg b.w. of ADE, DMBA-treated and administered orally 2.5 mM melatonin, and DMBA-treated and administered 2.5 mM melatonin plus 1 g/kg b.w. of ADE. All six groups were treated daily for three months. On sacrification day, samples of blood were collected with the serum being separated and stored at −80° C.
The collected sera were analyzed for four mean activities namely, of superoxide dismutase (SOD) catalase, glutathione reductase (GR), and glutathione peroxidase (GPx). The means of the four activities in sera of the six treatment groups are illustrated in FIGS. 4-7. The mean serum SOD (FIG. 4), catalase (FIG. 5), GR (FIG. 6), and GPx (FIG. 7) in DMBA and ADE and/or melatonin administered rats was higher than that of the DMBA administered rats that were deprived of the ADE and/or melatonin.

COc1ccc2[nH]cc(CCNC(C)=O)c2c1 [melatonin]
higher: mean serum SOD activity (compared with DMBA-only rats (FIG. 4)) | mean serum catalase activity (compared with DMBA-only rats (FIG. 5)) | mean serum GR activity (compared with DMBA-only rats (FIG. 6)) | mean serum GPx activity (compared with DMBA-only rats (FIG. 7))
